Laboratory results as given in ChEMBL document CHEMBL5233266, “β-Carboline as a Privileged Scaffold for Multitarget Strategies in Alzheimer's Disease Therapy” (J Med Chem, 2021).
Values joined by “and” are separate entries in the source; they are usually repeats but may differ in a detail not shown here. Equal values may be shown once. Each block holds one compound with its values, some of them ahead of it.

Experiments:
Cholinesterase [1] = biological target: T1, Cholinesterase (Homo sapiens, UniProt P06276); test: Inhibition of BuChE (unknown origin)
T1 sequence (P06276 whole entry): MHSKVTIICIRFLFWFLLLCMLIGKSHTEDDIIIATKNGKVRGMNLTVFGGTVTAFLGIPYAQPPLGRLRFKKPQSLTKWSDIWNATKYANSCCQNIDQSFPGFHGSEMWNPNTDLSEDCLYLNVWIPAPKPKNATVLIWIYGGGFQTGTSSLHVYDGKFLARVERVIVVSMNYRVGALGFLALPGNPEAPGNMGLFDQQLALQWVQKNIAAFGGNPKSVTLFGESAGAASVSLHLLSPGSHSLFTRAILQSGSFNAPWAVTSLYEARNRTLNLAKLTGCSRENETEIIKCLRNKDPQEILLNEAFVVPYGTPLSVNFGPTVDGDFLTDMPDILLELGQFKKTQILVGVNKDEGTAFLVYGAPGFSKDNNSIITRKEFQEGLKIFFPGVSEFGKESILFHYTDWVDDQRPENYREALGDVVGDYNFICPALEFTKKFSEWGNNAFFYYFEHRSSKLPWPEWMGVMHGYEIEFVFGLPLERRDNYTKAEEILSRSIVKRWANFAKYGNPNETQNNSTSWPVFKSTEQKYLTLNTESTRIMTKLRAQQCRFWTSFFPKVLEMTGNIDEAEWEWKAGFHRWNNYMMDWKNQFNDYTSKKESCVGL

Acetylcholinesterase [2] = biological target: T2, Acetylcholinesterase (Homo sapiens, UniProt P22303); test: Inhibition of AChE (unknown origin) incubated for 40 mins by Ellman's method
T2 sequence (P22303 whole entry): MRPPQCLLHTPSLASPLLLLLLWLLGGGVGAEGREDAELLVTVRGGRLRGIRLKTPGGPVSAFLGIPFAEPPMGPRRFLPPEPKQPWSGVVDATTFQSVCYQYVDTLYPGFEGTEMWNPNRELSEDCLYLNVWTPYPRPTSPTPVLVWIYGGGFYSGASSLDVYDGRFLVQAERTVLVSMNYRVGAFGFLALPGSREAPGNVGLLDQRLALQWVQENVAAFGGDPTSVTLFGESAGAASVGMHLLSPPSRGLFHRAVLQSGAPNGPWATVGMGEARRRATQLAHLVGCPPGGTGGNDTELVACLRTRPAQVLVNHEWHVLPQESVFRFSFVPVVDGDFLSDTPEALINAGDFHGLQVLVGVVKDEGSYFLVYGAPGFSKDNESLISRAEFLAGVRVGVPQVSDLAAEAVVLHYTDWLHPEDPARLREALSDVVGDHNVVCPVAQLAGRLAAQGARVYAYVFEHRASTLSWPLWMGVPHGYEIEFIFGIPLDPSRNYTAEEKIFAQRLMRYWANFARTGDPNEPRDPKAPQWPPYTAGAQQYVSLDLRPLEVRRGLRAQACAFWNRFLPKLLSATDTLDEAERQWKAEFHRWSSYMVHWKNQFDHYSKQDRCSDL

Acetylcholinesterase [3] = biological target: T2, Acetylcholinesterase; test: Inhibition of AChE (unknown origin) using acetylthiocholine iodide as substrate incubated for 20 mins followed by substrate addition by Ellman's method
[4] = biological target: GABA-A receptor; anion channel; test: Inhibition of GABAA receptor (unknown origin); assay type: protein-complex assay, Homo sapiens
[5] = biological target: T3, Gamma-aminobutyric acid receptor subunit alpha-2 (Homo sapiens, UniProt P47869); test: Binding affinity to human recombinant GABAA alpha2 receptor assessed as inhibition constant incubated for 1 hrs by liquid scintillation counting analysis
T3 sequence (P47869 whole entry): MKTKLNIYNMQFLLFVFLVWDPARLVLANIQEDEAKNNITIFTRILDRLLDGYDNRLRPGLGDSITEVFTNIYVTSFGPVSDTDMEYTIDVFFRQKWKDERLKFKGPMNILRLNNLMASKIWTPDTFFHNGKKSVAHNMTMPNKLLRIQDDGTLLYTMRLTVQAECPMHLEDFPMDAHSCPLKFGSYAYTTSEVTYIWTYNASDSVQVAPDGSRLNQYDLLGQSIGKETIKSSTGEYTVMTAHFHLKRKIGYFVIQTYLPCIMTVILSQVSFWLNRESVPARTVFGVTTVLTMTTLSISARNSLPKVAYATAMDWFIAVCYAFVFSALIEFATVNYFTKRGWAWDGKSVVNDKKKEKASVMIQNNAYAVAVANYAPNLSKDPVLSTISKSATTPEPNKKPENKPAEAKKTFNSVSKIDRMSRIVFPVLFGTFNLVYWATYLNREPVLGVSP

[6] = biological target: T4, Gamma-aminobutyric acid receptor subunit alpha-3 (Homo sapiens, UniProt P34903); test: Binding affinity to human recombinant GABAA alpha3 receptor assessed as inhibition constant incubated for 1 hrs by liquid scintillation counting analysis
T4 sequence (P34903 whole entry): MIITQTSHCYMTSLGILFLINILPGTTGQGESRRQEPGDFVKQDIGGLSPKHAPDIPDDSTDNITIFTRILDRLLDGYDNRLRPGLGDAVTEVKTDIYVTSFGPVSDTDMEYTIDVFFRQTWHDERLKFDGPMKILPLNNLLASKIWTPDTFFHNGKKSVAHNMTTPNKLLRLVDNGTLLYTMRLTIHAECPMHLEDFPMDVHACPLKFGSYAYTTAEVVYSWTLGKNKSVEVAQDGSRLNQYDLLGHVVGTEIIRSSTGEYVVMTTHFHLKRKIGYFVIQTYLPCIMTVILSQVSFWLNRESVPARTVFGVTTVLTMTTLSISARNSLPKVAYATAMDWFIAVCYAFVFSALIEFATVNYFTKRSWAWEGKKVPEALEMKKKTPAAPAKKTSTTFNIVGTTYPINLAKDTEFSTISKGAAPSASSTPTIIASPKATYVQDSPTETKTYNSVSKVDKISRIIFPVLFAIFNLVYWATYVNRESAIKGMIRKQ

[7] = biological target: Gamma-aminobutyric acid receptor subunit alpha-4 (Homo sapiens, UniProt P48169); test: Binding affinity to human recombinant GABAA alpha4 receptor assessed as inhibition constant incubated for 1 hrs by liquid scintillation counting analysis
Sequence of Gamma-aminobutyric acid receptor subunit alpha-4 (P48169 whole entry): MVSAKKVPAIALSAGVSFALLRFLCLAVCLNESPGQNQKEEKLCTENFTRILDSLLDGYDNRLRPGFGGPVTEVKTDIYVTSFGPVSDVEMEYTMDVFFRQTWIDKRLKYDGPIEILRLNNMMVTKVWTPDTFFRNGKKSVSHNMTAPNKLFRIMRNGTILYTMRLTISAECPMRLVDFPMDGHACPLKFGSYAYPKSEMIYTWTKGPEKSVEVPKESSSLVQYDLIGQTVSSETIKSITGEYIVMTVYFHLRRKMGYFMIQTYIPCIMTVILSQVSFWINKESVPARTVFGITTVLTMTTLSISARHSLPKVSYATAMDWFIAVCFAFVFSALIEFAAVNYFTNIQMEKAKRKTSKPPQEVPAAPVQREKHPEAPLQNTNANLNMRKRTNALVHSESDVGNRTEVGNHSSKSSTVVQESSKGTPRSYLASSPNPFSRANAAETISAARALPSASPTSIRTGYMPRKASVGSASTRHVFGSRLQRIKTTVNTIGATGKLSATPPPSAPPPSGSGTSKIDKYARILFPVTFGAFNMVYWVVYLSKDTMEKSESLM

[8] = biological target: GABA-A receptor; anion channel; test: Displacement of [3H]flunitrazepam from GABAA (unknown origin ) receptor by radioligand binding assay; assay type: protein-complex assay, Homo sapiens
[9] = biological target: T5, Gamma-aminobutyric acid receptor subunit alpha-5 (Homo sapiens, UniProt P31644); test: Binding affinity to human recombinant GABAA alpha5 receptor assessed as inhibition constant incubated for 1 hrs by liquid scintillation counting analysis
T5 sequence (P31644 whole entry): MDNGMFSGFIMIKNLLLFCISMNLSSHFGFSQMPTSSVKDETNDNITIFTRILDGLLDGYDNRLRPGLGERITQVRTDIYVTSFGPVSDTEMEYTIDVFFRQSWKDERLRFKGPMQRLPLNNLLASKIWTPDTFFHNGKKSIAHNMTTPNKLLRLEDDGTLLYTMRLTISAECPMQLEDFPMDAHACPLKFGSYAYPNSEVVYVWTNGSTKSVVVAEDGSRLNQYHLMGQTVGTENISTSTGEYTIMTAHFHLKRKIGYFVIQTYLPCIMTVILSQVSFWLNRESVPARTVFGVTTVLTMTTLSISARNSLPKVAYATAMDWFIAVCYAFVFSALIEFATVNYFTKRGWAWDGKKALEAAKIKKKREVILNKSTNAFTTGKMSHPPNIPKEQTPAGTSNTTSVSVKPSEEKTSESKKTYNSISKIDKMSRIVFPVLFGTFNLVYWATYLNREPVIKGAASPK

[10] = biological target: Gamma-aminobutyric acid receptor subunit alpha-6 (Homo sapiens, UniProt Q16445); test: Binding affinity to human recombinant GABAA alpha6 receptor assessed as inhibition constant incubated for 1 hrs by liquid scintillation counting analysis
Sequence of Gamma-aminobutyric acid receptor subunit alpha-6 (Q16445 whole entry): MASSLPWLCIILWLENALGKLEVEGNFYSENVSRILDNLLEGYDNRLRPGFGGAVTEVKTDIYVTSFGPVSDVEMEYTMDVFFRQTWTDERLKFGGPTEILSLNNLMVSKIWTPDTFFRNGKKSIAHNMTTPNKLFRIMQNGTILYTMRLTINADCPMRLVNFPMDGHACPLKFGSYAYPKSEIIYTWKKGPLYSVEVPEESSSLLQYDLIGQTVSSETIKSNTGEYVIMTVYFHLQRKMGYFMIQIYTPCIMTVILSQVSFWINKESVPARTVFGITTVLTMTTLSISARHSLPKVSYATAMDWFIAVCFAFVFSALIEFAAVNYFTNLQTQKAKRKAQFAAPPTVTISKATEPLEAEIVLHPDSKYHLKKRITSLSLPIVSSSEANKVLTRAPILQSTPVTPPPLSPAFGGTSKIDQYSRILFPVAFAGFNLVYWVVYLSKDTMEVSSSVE

[11] = biological target: 5-hydroxytryptamine receptor 2B (Homo sapiens, UniProt P41595); test: Binding affinity to 5-HT2B (unknown origin) assessed as equilibrium binding constant
Sequence of 5-hydroxytryptamine receptor 2B (Homo sapiens, UniProt P41595) (P41595 whole entry): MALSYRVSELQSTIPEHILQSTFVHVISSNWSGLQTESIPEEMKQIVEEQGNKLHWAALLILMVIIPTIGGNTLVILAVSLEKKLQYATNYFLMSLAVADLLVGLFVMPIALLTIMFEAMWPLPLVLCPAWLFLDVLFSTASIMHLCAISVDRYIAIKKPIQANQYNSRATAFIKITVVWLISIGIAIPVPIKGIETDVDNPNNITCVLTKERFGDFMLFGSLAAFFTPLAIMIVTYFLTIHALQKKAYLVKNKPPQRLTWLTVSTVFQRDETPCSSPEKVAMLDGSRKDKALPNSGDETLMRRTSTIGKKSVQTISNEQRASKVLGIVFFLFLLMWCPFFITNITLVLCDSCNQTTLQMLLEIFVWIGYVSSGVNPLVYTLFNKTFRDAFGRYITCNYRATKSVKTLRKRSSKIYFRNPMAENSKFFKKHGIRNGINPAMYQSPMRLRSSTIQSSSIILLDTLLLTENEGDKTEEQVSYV

[12] = biological target: 5-hydroxytryptamine receptor 2B (Rattus norvegicus, UniProt P30994); test: Displacement of [3H]-ketanserin from rat 5-HT2B expressed in mouse NIH/3T3 cells assessed as inhibition constant by Cheng-Prusoff equation analysis; assay type: cell-based
Sequence of 5-hydroxytryptamine receptor 2B (Rattus norvegicus, UniProt P30994) (P30994 whole entry): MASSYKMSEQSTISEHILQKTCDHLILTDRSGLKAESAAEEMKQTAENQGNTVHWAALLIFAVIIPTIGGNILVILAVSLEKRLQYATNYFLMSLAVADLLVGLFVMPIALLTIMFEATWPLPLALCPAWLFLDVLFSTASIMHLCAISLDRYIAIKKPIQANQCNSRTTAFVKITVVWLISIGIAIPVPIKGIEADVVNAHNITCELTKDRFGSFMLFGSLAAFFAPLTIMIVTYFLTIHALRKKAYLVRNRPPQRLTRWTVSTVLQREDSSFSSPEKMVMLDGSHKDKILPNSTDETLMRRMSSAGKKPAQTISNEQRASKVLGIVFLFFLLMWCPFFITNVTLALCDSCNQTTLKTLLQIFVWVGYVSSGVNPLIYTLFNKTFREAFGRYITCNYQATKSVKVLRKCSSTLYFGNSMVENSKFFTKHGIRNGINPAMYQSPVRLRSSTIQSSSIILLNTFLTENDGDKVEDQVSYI

[13] = biological target: T6, Amine oxidase [flavin-containing] A (Homo sapiens, UniProt P21397); test: Inhibition of MAO-A (unknown origin)
T6 sequence (P21397 whole entry): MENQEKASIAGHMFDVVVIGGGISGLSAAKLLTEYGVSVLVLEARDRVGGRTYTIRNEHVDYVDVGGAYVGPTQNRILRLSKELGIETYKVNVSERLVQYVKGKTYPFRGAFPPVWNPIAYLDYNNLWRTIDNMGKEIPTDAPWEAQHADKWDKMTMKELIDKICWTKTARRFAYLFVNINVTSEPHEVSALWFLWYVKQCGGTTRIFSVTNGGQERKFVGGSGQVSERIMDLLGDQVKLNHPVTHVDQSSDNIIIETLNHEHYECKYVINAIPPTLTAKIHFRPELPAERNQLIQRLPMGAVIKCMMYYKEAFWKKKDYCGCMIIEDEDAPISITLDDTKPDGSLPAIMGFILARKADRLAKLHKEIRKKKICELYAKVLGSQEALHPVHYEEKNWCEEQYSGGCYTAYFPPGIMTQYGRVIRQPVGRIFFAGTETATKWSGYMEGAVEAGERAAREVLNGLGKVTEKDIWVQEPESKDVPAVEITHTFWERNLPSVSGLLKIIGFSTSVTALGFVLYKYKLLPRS

Cholinesterase [14] = biological target: T1, Cholinesterase; test: Inhibition of BuChE (unknown origin) using acetylthiocholine iodide as substrate incubated for 20 mins followed by substrate addition by Ellman's method
[15] = biological target: T7, Gamma-aminobutyric acid receptor subunit alpha-1 (Homo sapiens, UniProt P14867); test: Binding affinity to human recombinant GABAA alpha1 receptor assessed as inhibition constant incubated for 1 hrs by liquid scintillation counting analysis
T7 sequence (P14867 whole entry): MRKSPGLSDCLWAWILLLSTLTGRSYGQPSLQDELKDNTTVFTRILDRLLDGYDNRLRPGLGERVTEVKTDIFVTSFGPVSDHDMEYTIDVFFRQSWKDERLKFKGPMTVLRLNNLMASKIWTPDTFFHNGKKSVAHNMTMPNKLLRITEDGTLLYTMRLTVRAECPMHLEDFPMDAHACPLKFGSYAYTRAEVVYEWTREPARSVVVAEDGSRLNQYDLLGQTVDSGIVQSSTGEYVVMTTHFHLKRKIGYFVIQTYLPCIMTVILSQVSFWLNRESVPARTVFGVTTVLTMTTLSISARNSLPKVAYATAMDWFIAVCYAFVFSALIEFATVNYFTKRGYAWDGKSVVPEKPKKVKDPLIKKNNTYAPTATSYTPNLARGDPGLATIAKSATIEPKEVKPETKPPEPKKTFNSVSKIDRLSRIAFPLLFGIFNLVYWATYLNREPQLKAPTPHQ

Acetylcholinesterase [16] = biological target: T2, Acetylcholinesterase; test: Inhibition of AChE (unknown origin)

Compound: Cn1c2ccccc2c2cc[n+](-c3ccc(Br)cc3)cc21
IC50 (Cholinesterase [1]): 32000 nM and 116000 nM
IC50 (Acetylcholinesterase [2]): 240 nM

Compound: C=C[C@H]1C[N+]2=C(C[C@@H]1/C(=C\OC)C(=O)OC)c1[nH]c3cccc(OC)c3c1CC2
IC50 (Acetylcholinesterase [3]): 4100 nM

Compound: CCCOc1cc2c(cn1)[nH]c1ccccc12
Ki [5]: 52 nM
Ki [6]: 69 nM
Ki [7]: 1000 nM
IC50 [8]: 3 nM
Ki [9]: 590 nM
Ki [10]: > 1000 nM

Compound: COCc1c(C(=O)OC(C)C)ncc2[nH]c3ccc4nccnc4c3c12
IC50 [4]: 0.8 nM

Compound: COCc1c(-c2cc(C)on2)ncc2[nH]c3ccc4oc(C(C)C)nc4c3c12
IC50 [4]: 0.9 nM

Compound: C=CCOc1ccc2c(c1)[nH]c1c(C)nccc12
IC50 [13]: 5 nM

Compound: COc1ccc2c3ccnc(C)c3n(C)c2c1
IC50 [13]: 11 nM

Compound: O=C1c2ccccc2-[n+]2ccc3c([nH]c4ccccc43)c21 [FASCAPLYSIN]
IC50 (Acetylcholinesterase [3]): 1500 nM
IC50 (Cholinesterase [14]): 90000 nM

Compound: O=C(CN1CCCCC1)Nc1ccc2nc3c4[nH]c5ccccc5c4ccn3c(=O)c2c1
IC50 (Acetylcholinesterase [3]): 10 nM
IC50 (Cholinesterase [14]): 5400 nM

Compound: COC(=O)C1=CO[C@@H](C)[C@H]2C[n+]3ccc4c([nH]c5ccccc54)c3C[C@H]12
IC50 (Acetylcholinesterase [3]): 780 nM

Compound: CN1c2ccc(OCc3ccccc3)cc2C(=O)N2CCc3c([nH]c4ccccc34)C21 (centres undefined)
IC50 (Acetylcholinesterase [3]): 3000 nM
IC50 (Cholinesterase [14]): 880 nM

Compound: Cc1ccc([N+]2=Cc3c(c4ccccc4n3C)CC2)cc1
IC50 (Acetylcholinesterase [2]): 1500 nM

Compound: Cn1c2ccccc2c2cc[n+](-c3ccc(I)cc3)cc21
IC50 (Acetylcholinesterase [16]): 240 nM and 300 nM
IC50 (Cholinesterase [1]): 32000 nM and 116000 nM
IC50 (Acetylcholinesterase [2]): 240 nM

Further lines, results first:

IC50 [4]: 4 nM
Compound: O=[N+]([O-])c1ccc2[nH]c3cnc4c5ccccc5[nH]c4c3c2c1

Kb [11]: < 0.3 nM
Ki [12]: 0.2 nM
Compound: COc1ccc(CC2NCCc3c2[nH]c2ccc(C)cc32)c(Cl)c1OC (centres undefined)

Kb [11]: < 0.3 nM
Ki [12]: 0.2 nM
Compound: COc1ccc(CC2NCCc3c2[nH]c2c(F)cc(F)cc32)cc1OC (centres undefined)

Kb [11]: < 0.3 nM
Ki [12]: 0.1 nM
Compound: COc1ccc(CC2NCCc3c2[nH]c2cccc(I)c32)cc1OC (centres undefined)

IC50 [13]: 40 nM
Compound: Cc1nccc2c1[nH]c1cc(CO)ccc12

Ki [5]: 12 nM
Ki [6]: 11 nM
IC50 [4]: 4 nM
Ki [15]: 3 nM
Ki [9]: 230 nM
Ki [10]: > 10000 nM
Compound: COc1ccc2c(c1)[nH]c1c2ncc2[nH]c3ccccc3c21

Kb [11]: < 0.3 nM
Ki [12]: 0.1 nM
Compound: COc1ccc(CC2NCCc3c2[nH]c2cccc(SC)c32)cc1OC (centres undefined)

Kb [11]: < 0.3 nM
Ki [12]: 0.2 nM
Compound: COc1ccc(CC2NCCc3c2[nH]c2ccc(C)cc32)c(Br)c1OC (centres undefined)

Ki [5]: 12 nM
Ki [6]: 24 nM
IC50 [4]: 4 nM
Ki [15]: 4 nM
Ki [9]: 210 nM
Ki [10]: > 10000 nM
Compound: Clc1ccc2c(c1)[nH]c1c2ncc2[nH]c3ccccc3c21

IC50 [4]: 0.8 nM
Compound: COCc1c(C(=O)OC(C)C)ncc2[nH]c3ccc4nc5c(nc4c3c12)CCCC5
